From patent US9492471B2, “Methods of treating a disease or disorder associated with Bruton'S Tyrosine Kinase” (Celgene Avilomics Research, Inc., priority 2013, dated 2016)
Where two headings read alike, the source gives them in different places.

Assays:
Test in all cases: HotSpot kinase profiling
Format in all cases: biochemical
[1] = target: T1, PHKg2 (Homo sapiens, UniProt P15735)
T1 construct: purchased Reaction Biology Corp
T1 sequence (P15735 1-406): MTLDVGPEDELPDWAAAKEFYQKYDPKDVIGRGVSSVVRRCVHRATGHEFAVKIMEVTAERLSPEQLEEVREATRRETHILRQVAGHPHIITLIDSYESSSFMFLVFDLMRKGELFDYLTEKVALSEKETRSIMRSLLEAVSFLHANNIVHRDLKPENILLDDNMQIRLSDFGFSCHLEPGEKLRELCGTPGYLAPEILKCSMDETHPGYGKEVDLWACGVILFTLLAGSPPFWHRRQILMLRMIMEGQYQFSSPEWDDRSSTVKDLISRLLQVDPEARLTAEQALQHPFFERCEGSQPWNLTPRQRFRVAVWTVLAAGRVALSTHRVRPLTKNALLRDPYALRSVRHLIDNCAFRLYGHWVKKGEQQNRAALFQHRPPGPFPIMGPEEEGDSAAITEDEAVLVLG
Procedure, shortened: (§1)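 Percent inhibition, averaged when run more than once and referenced to a DMSO negative control, came from a radioactive filter-binding readout on P81 paper. Reactions of kinase with freshly made substrate and cofactors ran for 2 h at room temperature.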

[2] = target: T2, ACK1 (Homo sapiens, UniProt Q07912)
T2 construct: purchased Reaction Biology Corp
T2 sequence (Q07912 whole entry): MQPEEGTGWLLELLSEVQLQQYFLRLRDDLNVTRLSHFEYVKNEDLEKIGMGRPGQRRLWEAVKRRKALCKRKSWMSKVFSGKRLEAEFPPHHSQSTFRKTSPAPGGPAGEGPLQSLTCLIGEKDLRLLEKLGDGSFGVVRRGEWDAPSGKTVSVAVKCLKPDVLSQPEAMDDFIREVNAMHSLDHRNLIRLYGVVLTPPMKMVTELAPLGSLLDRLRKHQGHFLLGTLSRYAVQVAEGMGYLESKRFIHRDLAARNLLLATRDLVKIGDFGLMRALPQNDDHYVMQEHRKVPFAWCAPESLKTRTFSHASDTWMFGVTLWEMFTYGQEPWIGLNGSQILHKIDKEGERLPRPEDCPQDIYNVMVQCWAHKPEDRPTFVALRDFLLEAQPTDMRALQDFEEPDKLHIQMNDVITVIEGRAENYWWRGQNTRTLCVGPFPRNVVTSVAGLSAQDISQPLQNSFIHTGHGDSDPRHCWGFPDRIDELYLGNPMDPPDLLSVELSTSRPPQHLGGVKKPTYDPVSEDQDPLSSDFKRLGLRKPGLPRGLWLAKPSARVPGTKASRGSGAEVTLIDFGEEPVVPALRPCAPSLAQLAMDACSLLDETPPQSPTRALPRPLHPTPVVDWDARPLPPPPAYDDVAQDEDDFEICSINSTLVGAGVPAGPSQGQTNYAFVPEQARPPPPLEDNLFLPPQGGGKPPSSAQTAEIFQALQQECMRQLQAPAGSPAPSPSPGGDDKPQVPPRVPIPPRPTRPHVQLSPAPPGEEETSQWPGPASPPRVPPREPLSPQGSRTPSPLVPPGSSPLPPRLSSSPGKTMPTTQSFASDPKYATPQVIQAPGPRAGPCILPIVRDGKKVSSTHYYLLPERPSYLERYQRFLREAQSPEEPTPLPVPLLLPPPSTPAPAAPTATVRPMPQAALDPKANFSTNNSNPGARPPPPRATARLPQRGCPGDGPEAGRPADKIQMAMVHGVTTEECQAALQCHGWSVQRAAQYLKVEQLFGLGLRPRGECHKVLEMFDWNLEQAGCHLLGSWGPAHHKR
Procedure, shortened: as §1

[3] = target: T3, MLK2/MAP3K10 (Homo sapiens, UniProt Q02779)
T3 construct: purchased Reaction Biology Corp
T3 sequence (Q02779 whole entry): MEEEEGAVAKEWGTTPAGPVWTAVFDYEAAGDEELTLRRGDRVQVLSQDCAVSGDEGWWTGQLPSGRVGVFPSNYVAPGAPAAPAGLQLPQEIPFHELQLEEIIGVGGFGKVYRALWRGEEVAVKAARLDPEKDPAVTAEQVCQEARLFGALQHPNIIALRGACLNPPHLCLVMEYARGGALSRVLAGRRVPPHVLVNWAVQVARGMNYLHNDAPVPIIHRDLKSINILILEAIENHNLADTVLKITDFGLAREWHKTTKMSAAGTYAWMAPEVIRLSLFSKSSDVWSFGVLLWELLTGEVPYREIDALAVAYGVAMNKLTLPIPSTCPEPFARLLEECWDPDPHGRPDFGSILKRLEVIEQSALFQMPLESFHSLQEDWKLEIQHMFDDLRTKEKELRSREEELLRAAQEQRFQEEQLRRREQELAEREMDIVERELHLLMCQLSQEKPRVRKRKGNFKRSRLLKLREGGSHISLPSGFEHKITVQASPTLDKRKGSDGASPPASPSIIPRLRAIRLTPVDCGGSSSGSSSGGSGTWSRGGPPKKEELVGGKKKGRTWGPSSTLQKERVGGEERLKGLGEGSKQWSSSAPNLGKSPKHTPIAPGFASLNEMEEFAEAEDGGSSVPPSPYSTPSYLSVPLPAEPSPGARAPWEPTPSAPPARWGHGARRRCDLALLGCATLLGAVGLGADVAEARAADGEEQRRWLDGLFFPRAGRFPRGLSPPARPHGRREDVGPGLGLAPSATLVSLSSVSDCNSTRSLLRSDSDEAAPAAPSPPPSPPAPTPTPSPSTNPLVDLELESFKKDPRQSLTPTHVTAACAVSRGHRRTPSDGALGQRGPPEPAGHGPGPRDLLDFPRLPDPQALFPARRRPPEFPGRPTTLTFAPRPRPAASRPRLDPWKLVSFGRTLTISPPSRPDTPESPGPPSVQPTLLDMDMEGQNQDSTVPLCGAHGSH
Procedure, shortened: as §1

[4] = target: T4, RSK4 (Homo sapiens, UniProt Q9UK32)
T4 construct: purchased Reaction Biology Corp
T4 sequence (Q9UK32 whole entry): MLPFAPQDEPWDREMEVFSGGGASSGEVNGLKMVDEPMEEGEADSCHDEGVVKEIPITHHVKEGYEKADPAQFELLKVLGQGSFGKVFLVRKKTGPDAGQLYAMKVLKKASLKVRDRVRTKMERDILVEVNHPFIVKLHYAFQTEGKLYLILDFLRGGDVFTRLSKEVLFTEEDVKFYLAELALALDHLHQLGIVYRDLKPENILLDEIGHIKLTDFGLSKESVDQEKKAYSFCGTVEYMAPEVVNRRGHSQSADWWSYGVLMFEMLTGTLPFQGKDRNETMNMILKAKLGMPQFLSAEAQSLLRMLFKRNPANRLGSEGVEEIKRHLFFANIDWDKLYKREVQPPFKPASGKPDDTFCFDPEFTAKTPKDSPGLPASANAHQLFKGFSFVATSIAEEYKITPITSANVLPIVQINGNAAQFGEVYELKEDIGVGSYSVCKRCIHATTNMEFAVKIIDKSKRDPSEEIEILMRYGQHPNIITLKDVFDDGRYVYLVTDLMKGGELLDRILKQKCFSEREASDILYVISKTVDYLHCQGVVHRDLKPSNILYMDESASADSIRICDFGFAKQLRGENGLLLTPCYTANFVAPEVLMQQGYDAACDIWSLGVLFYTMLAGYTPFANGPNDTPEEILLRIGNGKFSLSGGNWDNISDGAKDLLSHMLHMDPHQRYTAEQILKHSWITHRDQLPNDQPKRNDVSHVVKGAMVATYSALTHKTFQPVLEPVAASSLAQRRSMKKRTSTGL
Procedure, shortened: as §1

[5] = target: T5, DYRK3 (Homo sapiens, UniProt O43781)
T5 construct: purchased Reaction Biology Corp
T5 sequence (O43781 1-588): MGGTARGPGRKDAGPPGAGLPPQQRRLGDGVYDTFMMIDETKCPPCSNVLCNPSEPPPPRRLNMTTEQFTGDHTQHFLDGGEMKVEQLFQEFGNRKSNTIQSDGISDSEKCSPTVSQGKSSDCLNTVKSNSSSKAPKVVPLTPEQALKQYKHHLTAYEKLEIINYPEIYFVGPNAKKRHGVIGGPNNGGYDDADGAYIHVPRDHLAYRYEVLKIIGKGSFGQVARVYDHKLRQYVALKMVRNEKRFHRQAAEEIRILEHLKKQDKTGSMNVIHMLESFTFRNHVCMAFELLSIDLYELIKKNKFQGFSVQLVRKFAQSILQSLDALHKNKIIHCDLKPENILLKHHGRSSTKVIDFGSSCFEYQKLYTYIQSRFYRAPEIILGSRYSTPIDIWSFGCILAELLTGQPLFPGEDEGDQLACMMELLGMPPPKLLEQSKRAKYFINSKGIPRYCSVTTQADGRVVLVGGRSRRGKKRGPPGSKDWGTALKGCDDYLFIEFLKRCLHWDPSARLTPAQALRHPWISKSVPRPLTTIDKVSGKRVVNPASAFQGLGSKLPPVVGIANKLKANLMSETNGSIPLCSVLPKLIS
Procedure, shortened: as §1

[6] = target: T6, PLK1 (Homo sapiens, UniProt P53350)
T6 construct: purchased Reaction Biology Corp
T6 sequence (P53350 whole entry): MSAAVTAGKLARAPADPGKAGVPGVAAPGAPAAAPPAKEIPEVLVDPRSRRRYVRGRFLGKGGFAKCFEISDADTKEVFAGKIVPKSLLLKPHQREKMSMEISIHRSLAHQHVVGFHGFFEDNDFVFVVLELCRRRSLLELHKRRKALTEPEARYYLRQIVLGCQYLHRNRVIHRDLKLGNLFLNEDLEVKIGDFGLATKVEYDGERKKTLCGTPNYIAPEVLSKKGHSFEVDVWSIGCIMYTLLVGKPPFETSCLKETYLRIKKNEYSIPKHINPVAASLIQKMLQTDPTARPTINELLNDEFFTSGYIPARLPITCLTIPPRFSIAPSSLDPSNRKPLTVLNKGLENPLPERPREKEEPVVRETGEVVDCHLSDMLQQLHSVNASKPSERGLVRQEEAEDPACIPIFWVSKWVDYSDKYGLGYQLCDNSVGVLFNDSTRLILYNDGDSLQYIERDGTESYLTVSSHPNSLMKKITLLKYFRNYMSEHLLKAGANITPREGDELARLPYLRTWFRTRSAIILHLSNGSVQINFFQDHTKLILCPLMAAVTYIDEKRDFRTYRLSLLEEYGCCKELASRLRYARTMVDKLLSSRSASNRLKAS
Procedure, shortened: as §1

[7] = target: T7, LOK/STK10 (Homo sapiens, UniProt O94804)
T7 construct: purchased Reaction Biology Corp
T7 sequence (O94804 whole entry): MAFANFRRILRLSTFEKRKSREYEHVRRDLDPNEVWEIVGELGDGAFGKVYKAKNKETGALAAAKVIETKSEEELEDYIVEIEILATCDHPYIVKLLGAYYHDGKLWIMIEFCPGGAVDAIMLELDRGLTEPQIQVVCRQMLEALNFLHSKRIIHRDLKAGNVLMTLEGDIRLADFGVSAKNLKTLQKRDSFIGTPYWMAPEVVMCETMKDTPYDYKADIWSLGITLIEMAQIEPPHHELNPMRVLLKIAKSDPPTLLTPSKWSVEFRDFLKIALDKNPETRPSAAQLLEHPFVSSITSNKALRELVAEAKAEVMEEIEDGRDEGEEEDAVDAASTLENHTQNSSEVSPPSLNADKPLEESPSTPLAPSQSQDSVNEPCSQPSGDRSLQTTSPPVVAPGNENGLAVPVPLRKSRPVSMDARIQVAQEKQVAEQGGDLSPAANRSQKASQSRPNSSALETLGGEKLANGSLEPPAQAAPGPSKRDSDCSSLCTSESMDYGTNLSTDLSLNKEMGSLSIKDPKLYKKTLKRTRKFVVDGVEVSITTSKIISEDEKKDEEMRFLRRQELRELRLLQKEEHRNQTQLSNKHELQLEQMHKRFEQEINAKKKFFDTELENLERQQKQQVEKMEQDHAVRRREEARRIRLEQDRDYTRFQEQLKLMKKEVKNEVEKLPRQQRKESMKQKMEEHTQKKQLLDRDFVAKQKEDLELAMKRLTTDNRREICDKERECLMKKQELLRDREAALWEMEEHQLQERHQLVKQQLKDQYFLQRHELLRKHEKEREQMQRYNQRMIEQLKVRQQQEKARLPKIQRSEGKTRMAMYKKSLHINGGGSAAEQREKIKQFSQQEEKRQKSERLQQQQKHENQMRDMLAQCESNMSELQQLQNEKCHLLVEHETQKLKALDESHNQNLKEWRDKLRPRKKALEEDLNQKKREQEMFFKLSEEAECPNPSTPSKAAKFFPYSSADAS
Procedure, shortened: as §1

[8] = target: T8, MARK4 (Homo sapiens, UniProt Q96L34)
T8 construct: purchased Reaction Biology Corp
T8 sequence (Q96L34 1-752): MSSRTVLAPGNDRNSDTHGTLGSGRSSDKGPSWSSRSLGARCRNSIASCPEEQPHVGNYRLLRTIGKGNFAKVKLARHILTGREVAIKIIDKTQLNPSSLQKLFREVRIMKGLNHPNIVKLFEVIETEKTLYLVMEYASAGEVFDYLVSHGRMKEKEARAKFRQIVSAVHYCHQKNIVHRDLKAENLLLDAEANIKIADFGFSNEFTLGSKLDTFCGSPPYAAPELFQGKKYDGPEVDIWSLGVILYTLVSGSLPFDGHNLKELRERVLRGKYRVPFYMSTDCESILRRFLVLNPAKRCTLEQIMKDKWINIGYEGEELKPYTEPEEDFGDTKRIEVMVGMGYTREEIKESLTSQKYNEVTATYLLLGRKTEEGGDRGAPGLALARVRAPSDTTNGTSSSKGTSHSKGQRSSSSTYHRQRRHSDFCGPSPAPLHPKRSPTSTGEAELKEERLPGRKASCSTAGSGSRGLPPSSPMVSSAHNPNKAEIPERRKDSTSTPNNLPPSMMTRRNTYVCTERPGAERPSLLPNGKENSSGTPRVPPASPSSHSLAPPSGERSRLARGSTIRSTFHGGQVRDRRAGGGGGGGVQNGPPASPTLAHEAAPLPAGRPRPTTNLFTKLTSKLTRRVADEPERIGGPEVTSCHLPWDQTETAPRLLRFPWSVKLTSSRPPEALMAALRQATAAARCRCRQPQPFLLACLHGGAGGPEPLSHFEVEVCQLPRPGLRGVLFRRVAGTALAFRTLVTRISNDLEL
Procedure, shortened: as §1

[9] = target: T9, GRK5 (Homo sapiens, UniProt P34947)
T9 construct: purchased Reaction Biology Corp
T9 sequence (P34947 whole entry): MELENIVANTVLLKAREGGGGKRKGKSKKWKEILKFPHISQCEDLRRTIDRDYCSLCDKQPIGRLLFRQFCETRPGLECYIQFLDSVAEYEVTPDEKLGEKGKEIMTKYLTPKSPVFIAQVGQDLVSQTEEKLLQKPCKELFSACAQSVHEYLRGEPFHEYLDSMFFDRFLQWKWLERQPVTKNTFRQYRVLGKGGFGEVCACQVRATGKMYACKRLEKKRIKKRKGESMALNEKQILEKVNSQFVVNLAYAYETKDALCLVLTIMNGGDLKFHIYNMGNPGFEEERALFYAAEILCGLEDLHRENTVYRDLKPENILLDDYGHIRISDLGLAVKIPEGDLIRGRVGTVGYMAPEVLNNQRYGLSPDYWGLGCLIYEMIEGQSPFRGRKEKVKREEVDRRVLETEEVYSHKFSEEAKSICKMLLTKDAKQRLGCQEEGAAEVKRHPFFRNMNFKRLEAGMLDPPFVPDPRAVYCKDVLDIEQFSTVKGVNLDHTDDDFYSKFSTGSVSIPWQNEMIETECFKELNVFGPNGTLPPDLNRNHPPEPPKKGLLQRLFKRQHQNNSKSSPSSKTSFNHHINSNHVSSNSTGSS
Procedure, shortened: as §1

[10] = read-out: % Enzyme Activity (relative to DMSO controls) Run 1
[11] = read-out: % Enzyme Activity (relative to DMSO controls) Run 2

`C=CC(=O)Nc1cccc(Nc2nc(Nc3ccc(OCCOC)c(F)c3)ncc2F)c1` [Compound 2] showed an inhibition at 3 µM [1] of -14.7%, a remaining activity at 3 µM [1, 10] of 118% and a remaining activity at 3 µM [1, 11] of 112%. The inhibition at 3 µM [2] was 77.5%, the remaining activity at 3 µM [2, 10] was 22.6% and the remaining activity at 3 µM [2, 11] was 22.5%. For the same molecule, the inhibition at 3 µM [3] was 54.6%, the remaining activity at 3 µM [3, 10] was 45.4% and the remaining activity at 3 µM [3, 11] was 45.3%. The inhibition at 3 µM [4] was 22.8%, the remaining activity at 3 µM [4, 10] was 77.2% and the remaining activity at 3 µM [4, 11] was 77.2%. For the same molecule, the inhibition at 3 µM [5] was 14.1%, the remaining activity at 3 µM [5, 10] was 86% and the remaining activity at 3 µM [5, 11] was 85.9%. The inhibition at 3 µM [6] was 8.06%, the remaining activity at 3 µM [6, 10] was 91.1% and the remaining activity at 3 µM [6, 11] was 92.8%. The inhibition at 3 µM [7] was 56.9%, the remaining activity at 3 µM [7, 10] was 43.1% and the remaining activity at 3 µM [7, 11] was 43%. For the same molecule, the inhibition at 3 µM [8] was 18.5%, the remaining activity at 3 µM [8, 10] was 82.2% and the remaining activity at 3 µM [8, 11] was 80.9%. It also gave an inhibition at 3 µM [9] of -2.59%, a remaining activity at 3 µM [9, 10] of 103% and a remaining activity at 3 µM [9, 11] of 102%.
